Results reported in ChEMBL document CHEMBL5380877, “Azulene as a biphenyl mimetic in orexin/hypocretin receptor agonists” (Bioorg Med Chem, 2023).

How the values were obtained:
Type in all cases: functional, cell-based
[1] = target: T1, Orexin receptor type 2 (Homo sapiens, UniProt O43614); test: Antagonist activity at human OX2 receptor expressed in CHO cells assessed as reduction in orexin-A induced calcium level at 10 uM incubated for 24 hrs by FLIPR calcium 4 assay
T1 sequence (O43614 whole entry): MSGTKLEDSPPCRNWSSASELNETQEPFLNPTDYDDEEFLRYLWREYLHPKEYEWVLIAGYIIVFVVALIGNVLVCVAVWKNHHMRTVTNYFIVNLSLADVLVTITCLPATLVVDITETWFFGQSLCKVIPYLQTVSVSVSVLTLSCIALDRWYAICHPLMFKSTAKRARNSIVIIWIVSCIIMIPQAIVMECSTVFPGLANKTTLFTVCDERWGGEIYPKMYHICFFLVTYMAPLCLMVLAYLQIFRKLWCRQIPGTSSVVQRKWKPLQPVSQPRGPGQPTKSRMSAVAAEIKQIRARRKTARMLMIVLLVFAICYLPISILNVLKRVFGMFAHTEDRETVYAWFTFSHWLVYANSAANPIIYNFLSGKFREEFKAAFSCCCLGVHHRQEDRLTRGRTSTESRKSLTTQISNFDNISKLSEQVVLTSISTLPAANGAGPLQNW

[2] = target: T2, Orexin/Hypocretin receptor type 1 (Homo sapiens, UniProt O43613); test: Agonist activity at human OX1 receptor expressed in CHO cells assessed as increase in Ca2+ accumulation level measured after 24 hrs by FLIPR calcium 4 assay
T2 sequence (O43613 whole entry): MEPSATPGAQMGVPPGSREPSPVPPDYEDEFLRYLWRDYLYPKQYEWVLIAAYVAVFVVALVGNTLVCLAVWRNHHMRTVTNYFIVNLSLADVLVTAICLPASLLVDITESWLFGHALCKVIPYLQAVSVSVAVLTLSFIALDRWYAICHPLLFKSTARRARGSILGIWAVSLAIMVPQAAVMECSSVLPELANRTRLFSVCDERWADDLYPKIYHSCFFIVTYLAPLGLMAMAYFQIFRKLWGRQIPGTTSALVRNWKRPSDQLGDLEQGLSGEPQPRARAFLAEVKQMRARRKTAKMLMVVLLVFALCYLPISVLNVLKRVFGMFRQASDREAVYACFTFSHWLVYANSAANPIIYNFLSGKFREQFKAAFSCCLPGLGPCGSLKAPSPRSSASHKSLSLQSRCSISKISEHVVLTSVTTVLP

[3] = target: T2, Orexin/Hypocretin receptor type 1; test: Antagonist activity at human OX1 receptor expressed in CHO cells assessed as reduction in orexin-A induced calcium level at 10 uM incubated for 24 hrs by FLIPR calcium 4 assay

Ki [1]	EC50 [2]	Ki [3]	Structure (SMILES)
> 10 µM	–	–	Cc1ccc2c(C(=O)N(C)C)cc(S(=O)(=O)Nc3cccc(N(CCNC(=O)c4cccc(C)c4)C(=O)C(F)(F)F)c3)c-2cc1
> 10 µM	–	–	CN(C)C(=O)c1ccc2c(C(=O)N(C)C)cc(S(=O)(=O)O)c-2cc1
–	1.62 µM	4 µM	Cc1ccc2c(C(=O)N(C)C)cc(S(=O)(=O)Nc3cccc(NCCNC(=O)c4cccc(C)c4)c3)c-2cc1
> 10 µM	–	–	CN(C)C(=O)c1ccc2ccc(C(=O)N(C)C)c-2cc1
> 10 µM	–	–	Cc1ccc2c(C(=O)C(F)(F)F)cc(S(=O)(=O)O)c-2cc1
> 10 µM	–	–	Cc1cccc(C(=O)NCCNc2cccc(NS(=O)(=O)c3cc(C(=O)C(F)(F)F)c4ccc(C(=O)N(C)C)ccc3-4)c2)c1
5 µM	–	–	Cc1ccc2c(C(=O)C(F)(F)F)cc(S(=O)(=O)Nc3cccc(NCCNC(=O)c4cccc(C)c4)c3)c-2cc1
> 10 µM	–	–	CN(C)C(=O)c1ccc2ccc(C(=O)C(F)(F)F)c-2cc1
> 10 µM	–	–	Cc1cccc(C(=O)NCCN(C(=O)C(F)(F)F)c2cccc(NS(=O)(=O)c3cc(C(=O)C(F)(F)F)c4ccc(C(=O)N(C)C)ccc3-4)c2)c1
> 10 µM	–	–	Cc1ccc2c(C(=O)N(C)C)cc(S(=O)(=O)O)c-2cc1
